Measurements: ChEMBL document CHEMBL3868597, “Modulating amyloid-β aggregation: The effects of peptoid side chain placement and chirality” (Bioorg Med Chem, 2017)
The source made the active and inactive calls. The calls are words filed in the database; no cut-off is given here. Non-standard residues stand in square brackets, D forms with d. Residues, ends and D or L forms follow the SMILES beside them. N(1S-Me-propyl)Gly = CC[C@H](C)NCC(=O)O; Nspe = C[C@H](NCC(=O)O)c1ccccc1; Nphe = O=C(O)CNCc1ccccc1; NPrGly = CCCNCC(=O)O; Nlys = NCCCCNCC(=O)O

Experiments:
[1] = target: Amyloid-beta precursor protein (Homo sapiens) (UniProt P05067); test: Inhibition of amyloid beta (1 to 40) (unknown origin) aggregation assessed as reduction in number aggregates at equilibrium at 100 uM after 24 hrs by uranyl acetate staining based transmission electron microscopic analysis
[2] = target: Amyloid-beta precursor protein (Homo sapiens) (UniProt P05067); test: Inhibition of agitation-induced amyloid beta (1 to 40) (unknown origin) aggregation assessed as decrease in lag time at 100 uM measured every 30 to 45 mins by dot blot analysis relative to control
[3] = target: Amyloid-beta precursor protein (Homo sapiens) (UniProt P05067); test: Inhibition of agitation-induced amyloid beta (1 to 40) (unknown origin) aggregation assessed as reduction in fibrillar aggregates at 100 uM measured every 30 to 45 mins by dot blot analysis
[4] = target: Amyloid-beta precursor protein (Homo sapiens) (UniProt P05067); test: Inhibition of amyloid beta (1 to 40) (unknown origin) aggregation assessed as decrease in size of protein aggregation at equilibrium at 100 uM after 24 hrs by uranyl acetate staining based transmission electron microscopic analysis
[5] = target: Amyloid-beta precursor protein (Homo sapiens) (UniProt P05067); test: Inhibition of amyloid beta (1 to 40) (unknown origin) aggregation assessed as absence of fibrillar branching at equilibrium at 100 uM by uranyl acetate staining based transmission electron microscopic analysis
[6] = target: Amyloid-beta precursor protein (Homo sapiens) (UniProt P05067); test: Inhibition of agitated amyloid beta (1 to 40) (unknown origin) aggregation assessed as increase in lag time at 100 uM by dot blot analysis relative to control
[7] = target: Amyloid-beta precursor protein (Homo sapiens) (UniProt P05067); test: Inhibition of agitated amyloid beta (1 to 40) (unknown origin) aggregation at 100 uM measured at equilibrium by thioflavin T based fluorometric assay
[8] = target: Amyloid-beta precursor protein (Homo sapiens) (UniProt P05067); test: Inhibition of agitation-induced amyloid beta (1 to 40) (unknown origin) aggregation assessed as decrease in lag time at 100 uM by dot blot analysis relative to control
[9] = target: Amyloid-beta precursor protein (Homo sapiens) (UniProt P05067); test: Inhibition of agitated amyloid beta (1 to 40) (unknown origin) aggregation assessed as reduction in fibrillar aggregates at 100 uM by dot blot analysis
[10] = target: Amyloid-beta precursor protein (Homo sapiens) (UniProt P05067); test: Inhibition of agitation-induced amyloid beta (1 to 40) (unknown origin) aggregation at 100 uM measured every 45 mins by thioflavin T based fluorometric assay
[11] = target: Amyloid-beta precursor protein (Homo sapiens) (UniProt P05067); test: Inhibition of amyloid beta (1 to 40) (unknown origin) aggregation assessed as circular/bird-nest like aggregate formation at equilibrium at 100 uM after 24 hrs by uranyl acetate staining based transmission electron microscopic analysis
[12] = target: Amyloid-beta precursor protein (Homo sapiens) (UniProt P05067); test: Inhibition of amyloid beta (1 to 40) (unknown origin) aggregation assessed as increase in surface hydrophobicity at equilibrium by nile red dye-based spectroscopic analysis

Sequence of Amyloid-beta precursor protein (Homo sapiens) (P05067 whole entry): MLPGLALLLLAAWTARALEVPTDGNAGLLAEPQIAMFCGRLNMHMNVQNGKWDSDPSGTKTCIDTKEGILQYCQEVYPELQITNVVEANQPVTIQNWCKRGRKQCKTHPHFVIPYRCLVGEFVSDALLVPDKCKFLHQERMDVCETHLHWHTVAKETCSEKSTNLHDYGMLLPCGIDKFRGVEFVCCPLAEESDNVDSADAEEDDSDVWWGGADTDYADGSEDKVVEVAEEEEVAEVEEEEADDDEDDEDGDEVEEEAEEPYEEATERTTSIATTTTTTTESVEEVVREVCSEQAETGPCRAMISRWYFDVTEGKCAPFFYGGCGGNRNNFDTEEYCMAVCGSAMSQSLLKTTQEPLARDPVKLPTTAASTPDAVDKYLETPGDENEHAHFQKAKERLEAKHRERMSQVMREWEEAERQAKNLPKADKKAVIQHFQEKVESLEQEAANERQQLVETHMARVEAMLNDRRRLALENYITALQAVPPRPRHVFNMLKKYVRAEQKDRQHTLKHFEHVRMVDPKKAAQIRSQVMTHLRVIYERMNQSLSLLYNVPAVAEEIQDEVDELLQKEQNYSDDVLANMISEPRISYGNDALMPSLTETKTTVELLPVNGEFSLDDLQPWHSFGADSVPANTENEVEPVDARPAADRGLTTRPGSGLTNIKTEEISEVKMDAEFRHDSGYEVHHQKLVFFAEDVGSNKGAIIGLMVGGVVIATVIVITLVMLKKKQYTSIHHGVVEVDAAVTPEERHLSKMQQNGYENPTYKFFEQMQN

CC[C@H](C)N(CC(=O)N(CC(=O)N(CC(=O)N(CC(=O)N(CC(=O)N(CC(=O)N(CC(N)=O)[C@@H](C)c1ccccc1)[C@@H](C)c1ccccc1)[C@@H](C)CC)[C@@H](C)c1ccccc1)[C@@H](C)c1ccccc1)[C@@H](C)CC)C(=O)CNCCCCN (H-[Nlys][N(1S-Me-propyl)Gly][N(1S-Me-propyl)Gly][Nspe][Nspe][N(1S-Me-propyl)Gly][Nspe][Nspe]-NH2)
inhibition [1]: Active
fold change (FC) [2]: < 0.31
inhibition [3]: 63.7%
inhibition [4]: Active
inhibition [5]: Active
fold change (FC) [6]: 2.7
inhibition [7]: 83.1%
fold change (FC) [8]: < 0.5
inhibition [9]: 46%
inhibition [10]: 81.2%

CCCN(CC(=O)N(CCC)CC(=O)N(CC(=O)N(CC(=O)N(CCC)CC(=O)N(CC(=O)N(CC(N)=O)Cc1ccccc1)Cc1ccccc1)Cc1ccccc1)Cc1ccccc1)C(=O)CNCCCCN (H-[Nlys][NPrGly][NPrGly][Nphe][Nphe][NPrGly][Nphe][Nphe]-NH2)
inhibition [1]: Active
inhibition [5]: Active
inhibition [7]: 85.6%
inhibition [11]: Active
inhibition [12]: Active
inhibition [9]: 72.6%

CC[C@H](C)NCC(=O)N(CC(=O)N(CC(=O)N(CC(=O)N(CC(=O)N(CCCCN)CC(=O)N(CC(=O)N(CC(N)=O)[C@@H](C)c1ccccc1)[C@@H](C)CC)[C@@H](C)CC)[C@@H](C)c1ccccc1)[C@@H](C)c1ccccc1)[C@@H](C)c1ccccc1 (H-[N(1S-Me-propyl)Gly][Nspe][Nspe][Nspe][N(1S-Me-propyl)Gly][Nlys][N(1S-Me-propyl)Gly][Nspe]-NH2)
inhibition [1]: Active
inhibition [5]: Active
fold change (FC) [6]: 2.2
inhibition [7]: 76.9%
inhibition [9]: 50.5%
